According to patent EP0820989A1, “IMIDAZOLE DERIVATIVES AND MEDICINAL COMPOSITION THEREOF” (YAMANOUCHI PHARMACEUTICAL CO., LTD., priority 1995, dated 1996):
Read-outs that look alike come from different tables or passages of the source.

Target: T1, rat steroid 17-20 lyase (Rattus norvegicus, UniProt P11715)
T1 construct: Testes were excised from ten-week-old male Wistar rats, homogenized and then centrifuged to give microsomes; from tissue; host or cells: testis microsomes of ten-week-old male Wistar rats
T1 sequence (P11715 1-507): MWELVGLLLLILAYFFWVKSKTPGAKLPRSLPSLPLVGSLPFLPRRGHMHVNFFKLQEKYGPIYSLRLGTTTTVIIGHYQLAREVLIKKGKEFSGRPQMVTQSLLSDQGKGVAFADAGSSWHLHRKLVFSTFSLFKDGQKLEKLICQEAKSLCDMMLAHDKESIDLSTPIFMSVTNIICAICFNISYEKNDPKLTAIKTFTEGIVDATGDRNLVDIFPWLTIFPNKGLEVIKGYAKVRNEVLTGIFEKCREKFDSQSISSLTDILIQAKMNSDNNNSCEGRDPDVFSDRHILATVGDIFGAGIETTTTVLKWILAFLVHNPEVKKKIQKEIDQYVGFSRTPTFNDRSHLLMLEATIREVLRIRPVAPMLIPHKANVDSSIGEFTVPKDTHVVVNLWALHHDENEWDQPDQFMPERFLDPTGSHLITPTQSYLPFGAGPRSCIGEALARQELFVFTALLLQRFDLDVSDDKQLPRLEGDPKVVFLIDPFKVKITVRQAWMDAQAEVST
Assay: Measurement of inhibition of rat steroid 17-20 lyase activity [in vitro]
Assay type: biochemical
Description: (1) Measurement of inhibition of rat steroid 17-20 lyase activity [in vitro]
This was carried out in accordance with the method described in J. Steroid Biochem., Vol.33, No.6, 1191-1195 (1989).
Testes were excised from ten-week-old male Wistar rats, homogenized and then centrifuged to give microsomes. The microsomal protein (50 µg), 1 µM of [1,2-^3H]-17α-hydroxyprogesterone (5.55 × 10^5 dpm) and a test compound were dissolved in 100 µl of 50 mM phosphate buffer (pH 7.4), NADPH solution was added, and then the mixture was incubated at 37°C for 60 minutes. Then, 400 µl of a mixed solution of methanol and tetrahydrofuran (2:3) was added, and the mixture was subjected to centrifugation, and then radioactivities of the substrate and the formed product (androstenedione and testosterone) in the resulting supernatant were measured by a high performance liquid chromatography (HPLC) equipped with a radioisotope detector to examine the activity of the test compound to inhibit steroid 17-20 lyase.

Row | SMILES | IC50 (rat testis microsomes (50 µg protein), 1 µM [1,2-3H]-17α-hydroxyprogesterone, NADPH, pH 7.4, 37°C, 60 minutes, HPLC, read-out: Inhibition of steroid 17-20 lyase activity IC50) [nM] | IC50 [nM]
1 | Fc1ccc2c(c1)[nH]c1cc(Cc3cccnc3)ccc12 [Control compound, reference compound] | 12.7 | –
2 | CC(c1ccc2c(c1)[nH]c1ccccc12)c1c[nH]cn1 (stereo not drawn) [Example 1e, 2-[1-(1H-Imidazol-4-yl)ethyl]-9H-carbazole] | – | 3.9
3 | CCCn1cncc1Cc1ccc2c(c1)[nH]c1ccccc12 [Example 13, 2-[(1-Propyl-1H-imidazol-5-yl)methyl]-9H-carbazole] | – | 2.5
